Assay results: patent US20060293227A1, “Cosmetic compositions and methods using transforming growth factor-beta mimics” (priority 2005, published 2006)
Blank lines part the entries; values can stand above or below the substance they belong to. Where no end group is shown, it is not given here. [ ]: non-standard residue; d: D form. NMeA = CN[C@@H](C)C(=O)O; Abu = CC[C@H](N)C(=O)O; Aib = CC(C)(N)C(=O)O

Legend:
[1] = tested on: NRK-49 F fibroblasts; test: Growth and colony formation by NRK-49 F fibroblasts in soft agar; format: cell-based; conditions: 100 nM in Example 2, with EGF and PDGF
Protocol: The original assay for TGF-β, the ability to promote anchorage independent growth of normal fibroblasts is still one of the hallmarks of TGF-β activity. NRK-49 F fibroblasts were grown at 37° C. in DEM supplemented with 10% fetal calf serum. […] To this, either 100 nM TGF-β (positive control) or 100 nM cytomodulin was added. NRK49 F fibroblasts (5×10^4 cells/mi) were mixed with 0.3% agar were plated on the bottom of 35 mm culture dishes. Colony formation was observed starting on day 3 of culture.

[2] = tested on: NRK-49 F fibroblasts; conditions: literature statement (Massagu, J. Biol. Chem. 1984); cited from earlier work
[3] = tested on: human dermal fibroblasts; test: Expression of type I collagen, TGF-β and collagenase in human dermal fibroblasts; format: cell-based; conditions: for Expression of TGF-β / Expression of collagenase: human dermal fibroblasts; for Expression of type I collagen: human dermal fibroblasts (primary cultures of neo-natal cells for cytomodulin)
[4] = tested on: TGF-β activity; test: TGF-β like activity, overall statement from the assays used; format: cell-based; conditions: by the assays used
[5] = tested on: human osteogenic sarcoma (HOS) cell line; test: Expression of type I collagen, TGF-β, alkaline phosphatase and osteonectin in HOS cells; format: cell-based
[6] = tested on: Mv-1-Lu mink lung epithelial cells; test: Inhibition of DNA synthesis ([3H]thymidine incorporation) of Mv-1-Lu mink lung epithelial cells; format: cell-based; conditions: for Inhibition of DNA synthesis / proliferation of Mv-1-Lu cells (in words): thymidine incorporation, cytomodulin at 10^-9 to 10^-6 M; for Inhib by new peptide/Inhib by cytomodulin: 3H-thymidine incorporation, MV-1-Lu cells, cytomodulin at same concentration; for 3H-Radioactivity / % Inhibition of incorporation of 3H-thymidine: MV-1 Lu cells
Protocol: The effect of TGF-β and cytomodulin were evaluated by determining the rate of […] incorporation into total acid-insoluble DNA and cell number. See generally, Sampath et al., J. Biol. Chem., 267, pp. 20352-20362 (1992). DNA synthesis rates were determined in triplicate cultures after 24 hour treatment with various concentrations (10^−9 M to 10^−6 M) of either TGF-β or cytomodulin (which was synthesized by the Merrifield method) by adding [methyl-^3H]thymidine (2uCi/ml, 80 Ci/mmol) for 6 hours before the termination of the culture. Incorporation was terminated by aspiration of the medium, and after washing three times with phosphate-buffered saline, the trichloroacetic acid (10%)-precipitated radioactive DNA was extracted with 1.0% (w/v) sodium dodecyl sulfate, 0.1 M NaOH and quantitated by liquid scintillation counting. For cell number determination, 1×10^5 cells were plated in flasks in MEM containing 10% FBS, and after 24 hours, the growth medium was replaced with serum-free medium containing various conceptions of TGF-β and cytomodulin. Triplicate cultures were harvested every 24 hours for the duration of 7 days, and the cell number was determined by counting cells released by trypsin digestion in a fixed volume hemacytometer.
The numbers shown at the various concentration are the ratio of the inhibition rate of the peptide being tested over the inhibition rate of cytomodulin (SEQ ID NO: 1) at the same concentration.
Tests for bioactivity were conducted as described above for DNA inhibition. In summary, the cytomodulin analogs listed in Table 3 were all found active as agonists and thus, as defined herein, are considered TGF-β mimics.

[7] = tested on: eyelids; design: species or system human; conditions: in vivo
Text: A person, applied a lotion comprising cytomodulin (SEQ ID NO: 1) at a concentration of about 0.001%, to their eyelids twice per week for 2 months.

[8] = tested on: skin; design: species or system human; conditions: in vivo
Text: A person, with very dry, wind-burnt skin, many fine lines, and the beginning of wrinkles, applied a lotion comprising cytomodulin (SEQ ID NO: 1) at a concentration of about 0.001% on left side of their face only, three days per week. […] Within 3 weeks there was a a noticeable difference between the two sides of the face, with the right side having more fine lines appearing much drier and weather-worn than the left (treated) side. […] The subject stopped application after 3 months because of the difference in the appearance of the two side of the face A person applied a lotion comprising cytomodulin (SEQ ID NO: 1) at a concentration of about 0.001% on right side of their neck only, daily. […] The right side of the neck is noticeably different than the left side of the neck. […] A person with noticebly wrinkled and thickened skin on the neck applied a lotion comprising cytomodulin (SEQ ID NO: 1) at a concentration of about 0.001% to their neck once every four days. The subject also used Lancome makeup with sunscreen and Oil of Olay moisturizer for sensitive skin.

[9] = tested on: skin; design: species or system human; conditions: in vivo; remark: listed apart in the source
Text: A person, of light complexion, applied a lotion comprising cytomodulin (SEQ ID NO: 1) at a concentration of about 0.001%, in EUCERIN™, to one side of their face a at a frequency of 1-2 times per week, typically at night before sleep, leaving uncovered while leaving the other side of their face without application of the TGF-β lotion. […] For example, crows feet became more shallow and the skin and face looked fuller and smoother. Color and skin tone became more youthful in appearance. […] After 18 days of treatment, the difference in appearance between the treated and untreated sides of the face was noticeable enough that the subject began to apply the topical composition to the entire face.
The same subject applied the CM-1 lotion to the back of one hand daily, while leaving the back of the other hand untreated. The treatment continued for several weeks.

Substance: TGF-β
Growth and colony formation in soft agar [1]: grew colonies
Colony formation in the absence of EGF and PDGF [2]: does not induce colony formation

Expression of TGF-β [3]: increased the expression
Expression of collagenase [3]: decreased the expression
Expression of type I collagen [3]: increased the expression
Substance: L-I-A-P-E-A (LIAPEA) [L1]
Growth and colony formation in soft agar [1]: promoted the growth
TGF-β like activity (overall) [4]: at least as much TGF-β like activity as cytomodulin
Expression of TGF-β [5]: increased the expression
Expression of alkaline phosphatase [5]: increased the expression
Expression of type I collagen [5]: increased the expression
Inhibition of DNA synthesis / proliferation of Mv-1-Lu cells (in words) [6]: inhibited the proliferation

Substance: L-I-A-K-G-K (LIAKGK) [SEQ ID NO: 16]
Inhib by new peptide/Inhib by cytomodulin ([6]; concentration 10 nM): 0.65
Inhib by new peptide/Inhib by cytomodulin ([6]; concentration 100 nM): 0.67

Negative effects of application [9]: No negative effects
Substance: ANVAENA [cytomodulin, Ala-Asn-Val-Ala-Glu-Asn-Ala]
Adverse effects [7]: No adverse effects
Accidental contact of the lotion with the eyes [8]: no apparent problem or irritation
Adverse effects [8]: No adverse effects
Adverse effects (subject's report) [8]: no adverse effects

Substance: L-I-(Nme-A)-E-A-K (LI[NMeA]EAK) [SEQ ID NO: 5]
3H-Radioactivity ([6]; peptide 1 nM): 1.61 10^3 dpm
% Inhibition of incorporation of 3H-thymidine ([6]; peptide 1 nM): 47%
3H-Radioactivity ([6]; peptide 5 nM): 1.76 10^3 dpm
% Inhibition of incorporation of 3H-thymidine ([6]; peptide 5 nM): 42%
3H-Radioactivity ([6]; peptide 50 nM): 1.60 10^3 dpm
% Inhibition of incorporation of 3H-thymidine ([6]; peptide 50 nM): 41%
3H-Radioactivity ([6]; peptide 100 nM): 1.81 10^3 dpm
% Inhibition of incorporation of 3H-thymidine ([6]; peptide 100 nM): 40%
3H-Radioactivity ([6]; peptide 500 nM): 1.42 10^3 dpm
% Inhibition of incorporation of 3H-thymidine ([6]; peptide 500 nM): 53%

Substance: L-I-A-D-A-K (LIADAK) [SEQ ID NO: 9]
Inhib by new peptide/Inhib by cytomodulin ([6]; concentration 1 nM): 0.45
Inhib by new peptide/Inhib by cytomodulin ([6]; concentration 10 nM): 0.87
Inhib by new peptide/Inhib by cytomodulin ([6]; concentration 100 nM): 1.14
Inhib by new peptide/Inhib by cytomodulin ([6]; concentration 1000 nM): 1.25

Expression of TGF-β [3]: increased the expression
Expression of collagenase [3]: decreased the expression
Expression of type I collagen [3]: increased the expression
Substance: L-I-A-E-A-K (LIAEAK) [L2]
Growth and colony formation in soft agar [1]: promoted the growth
TGF-β like activity (overall) [4]: at least as much TGF-β like activity as cytomodulin
Expression of TGF-β [5]: increased the expression
Expression of alkaline phosphatase [5]: increased the expression
Expression of type I collagen [5]: increased the expression
Inhibition of DNA synthesis / proliferation of Mv-1-Lu cells (in words) [6]: inhibited the proliferation

Substance: L-I-A-N-A-K (LIANAK) [SEQ ID NO: 10]
Inhib by new peptide/Inhib by cytomodulin ([6]; concentration 1 nM): 1.70
Inhib by new peptide/Inhib by cytomodulin ([6]; concentration 10 nM): 2.00
Inhib by new peptide/Inhib by cytomodulin ([6]; concentration 100 nM): 1.43
Inhib by new peptide/Inhib by cytomodulin ([6]; concentration 1000 nM): 3.05

Substance: L-(Aib)-A-E-A-K (L[Aib]AEAK) [SEQ ID NO: 4]
3H-Radioactivity ([6]; peptide 5 nM): 2.31 10^3 dpm
% Inhibition of incorporation of 3H-thymidine ([6]; peptide 5 nM): 35%
3H-Radioactivity ([6]; peptide 50 nM): 1.94 10^3 dpm
% Inhibition of incorporation of 3H-thymidine ([6]; peptide 50 nM): 46%
3H-Radioactivity ([6]; peptide 100 nM): 1.44 10^3 dpm
% Inhibition of incorporation of 3H-thymidine ([6]; peptide 100 nM): 60%
3H-Radioactivity ([6]; peptide 500 nM): 1.61 10^3 dpm
% Inhibition of incorporation of 3H-thymidine ([6]; peptide 500 nM): 55%
% Inhibition of incorporation of 3H-thymidine ([6]; peptide 1 mM (so in the source)): 27%
3H-Radioactivity ([6]; peptide 1 mM (so in the source), control without peptide 3.57): 2.60 10^3 dpm

Substance: L-(Abu)-A-E-A-K (L[Abu]AEAK) [SEQ ID NO: 6]
3H-Radioactivity ([6]; peptide 1 nM): 2.02 10^3 dpm
% Inhibition of incorporation of 3H-thymidine ([6]; peptide 1 nM): 33%
3H-Radioactivity ([6]; peptide 5 nM): 1.97 10^3 dpm
% Inhibition of incorporation of 3H-thymidine ([6]; peptide 5 nM): 35%

Substance: L-I-A-E-A-A (LIAEAA) [SEQ ID NO: 11]
Inhib by new peptide/Inhib by cytomodulin ([6]; concentration 1 nM): 1.16
Inhib by new peptide/Inhib by cytomodulin ([6]; concentration 10 nM): 1.00
Inhib by new peptide/Inhib by cytomodulin ([6]; concentration 100 nM): 1.17
Inhib by new peptide/Inhib by cytomodulin ([6]; concentration 1000 nM): 1.85

Substance: L-I-A-G-G-E (LIAGGE) [SEQ ID NO: 13]
Inhib by new peptide/Inhib by cytomodulin ([6]; concentration 1 nM): 1.10
Inhib by new peptide/Inhib by cytomodulin ([6]; concentration 10 nM): 1.33
Inhib by new peptide/Inhib by cytomodulin ([6]; concentration 100 nM): 1.45
Inhib by new peptide/Inhib by cytomodulin ([6]; concentration 1000 nM): 1.90

Substance: L-I-A-Q-A-K (LIAQAK) [SEQ ID NO: 12]
Inhib by new peptide/Inhib by cytomodulin ([6]; concentration 1 nM): 0.90
Inhib by new peptide/Inhib by cytomodulin ([6]; concentration 10 nM): 1.10
Inhib by new peptide/Inhib by cytomodulin ([6]; concentration 100 nM): 0.80
Inhib by new peptide/Inhib by cytomodulin ([6]; concentration 1000 nM): 1.56

Substance: A-N-V-A-E-K (ANVAEK) [SEQ ID NO: 15]
Inhib by new peptide/Inhib by cytomodulin ([6]; concentration 10 nM): 0.80
Inhib by new peptide/Inhib by cytomodulin ([6]; concentration 100 nM): 1.00

Substance: L-I-A-G-E-G (LIAGEG) [SEQ ID NO: 14]
Inhib by new peptide/Inhib by cytomodulin ([6]; concentration 1 nM): 0.66
Inhib by new peptide/Inhib by cytomodulin ([6]; concentration 10 nM): 0.85
Inhib by new peptide/Inhib by cytomodulin ([6]; concentration 100 nM): 1.41
Inhib by new peptide/Inhib by cytomodulin ([6]; concentration 1000 nM): 1.88
